These results are taken from patent US9067949B2, “Benzofuro[3,2-c] pyridines and related analogs as serotonin sub-type 6 (5-HT6) modulators for the treatment of obesity, metabolic syndrome, cognition and schizophrenia” (Albany Molecular Research, Inc., priority 2011, dated 2015).

Where two headings read alike, the source gives them in different places.

Data set [1] has as its target human 5-HT6 receptor (Homo sapiens (Human), UniProt P50406). The experiment in a line: 5-HT6 radioligand binding assay (SPA format, [N-methyl-3H]-LSD). The following applies: human 5-HT6 receptor membranes, 10 nM [N-methyl-3H]-LSD, Ki by Cheng-Prusoff, read-out: human 5HT6 Ki. How it is done:
The relative affinities of the various compounds for the 5-HT6 receptor were measured in a radioligand binding assay, using a scintillation proximity assay (SPA) format.
For binding analysis vs. the human receptor, samples were incubated in 50 mM Tris-HCl, pH 7.5, 5 mM MgCl2, 1 mM EDTA (4% DMSO final) with 10 nM [N-methyl-^3H]-LSD (Perkin Elmer), 2.5 ng of human 5-HT6 receptor membranes (Millipore) and 50 μg SPA beads (PVT-PEI-WGA, GE Healthcare) per well in a final volume of 0.2 mL. […] Binding reactions were performed in PicoPlate96 microtiter plates (Perkin Elmer) by consecutively adding 50 μL of each competing compound or buffer, SPA beads, radioligand and 5-HT6 receptor membranes. After an overnight incubation at room temperature on a Nutator mixer, plates were centrifuged for 15 min at 1,500 rpm, followed by incubation in the dark for 10 min. […] Total binding control contained compound dilution buffer only; nonspecific binding is determined in the presence of 100 μM 5-hydroxytryptamine. Specific binding was determined by subtracting nonspecific binding from total binding.
All experiments were performed in duplicate using ten concentrations of competing ligand, with clozapine included as a control in every run. IC50 values were determined from specific binding data using XLfit4.1 curve fitting software from IDBS Ltd. The inhibition constant (Ki) was calculated using the Cheng-Prusoff equation: (Ki=IC50/(1+(L/KD)), where L=concentration of radioligand in the assay, and KD=affinity of the radioligand for the receptor.

human 5-HT6 receptor, sequence (P50406 whole entry): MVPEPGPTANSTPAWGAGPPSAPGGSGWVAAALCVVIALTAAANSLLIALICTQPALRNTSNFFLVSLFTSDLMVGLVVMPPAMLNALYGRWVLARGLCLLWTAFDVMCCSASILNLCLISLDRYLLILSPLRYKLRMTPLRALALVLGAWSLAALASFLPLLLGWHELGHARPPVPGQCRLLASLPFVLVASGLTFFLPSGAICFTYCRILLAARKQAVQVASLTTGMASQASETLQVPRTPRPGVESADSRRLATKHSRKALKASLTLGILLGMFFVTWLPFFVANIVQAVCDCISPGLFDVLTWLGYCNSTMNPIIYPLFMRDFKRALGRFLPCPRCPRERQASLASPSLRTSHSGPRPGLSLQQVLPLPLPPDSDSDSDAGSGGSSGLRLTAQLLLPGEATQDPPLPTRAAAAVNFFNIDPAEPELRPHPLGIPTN

In the case of `CC1NCCc2oc3c(Cl)cc(S(=O)(=O)c4ccccc4)cc3c21.Cl` (single isomer, unassigned; (+)) [Example 82a, (+)-6-chloro-1-methyl-8-(phenylsulfonyl)-1,2,3,4-tetrahydrobenzofuro[3,2-c]pyridine hydrochloride], the melting point – broadly, the temperature of the solid-liquid transition – is 295 °C (dec.). The Ki (usually a measure of affinity in units of concentration, obtained from inhibition or displacement) in data set [1] (hydrochloride) amounted to 56 nM.
Molecule `O=S(=O)(c1ccccc1)c1cc(Cl)c2oc3c(c2c1)CC(O)CC3` (single isomer, unassigned; (+)) [Example 99, (+)-6-chloro-8-(phenylsulfonyl)-1,2,3,4-tetrahydrodibenzo[b,d]furan-2-ol] registered a melting point of 238 to 242 °C. The Ki in data set [1] was 1 nM.
`CC1Cc2oc3c(Cl)cc(S(=O)(=O)c4ccccc4)cc3c2CN1.Cl` (single isomer, unassigned; (-)) [Example 83a, (−) 6-chloro-3-methyl-8-(phenylsulfonyl)-1,2,3,4-tetrahydrobenzofuro[3,2-c]pyridine hydrochloride]: the melting point is 293 °C (dec.). Further, in data set [1] (hydrochloride), the Ki came to 25 nM.
For `O=S(=O)(c1ccccc1)c1cc(Cl)c2oc3c(c2c1)CC(O)CC3` (single isomer, unassigned; (-)) [Example 98, (−)-6-chloro-8-(phenylsulfonyl)-1,2,3,4-tetrahydrodibenzo[b,d]furan-2-ol], the melting point fell in the range of 236 to 240 °C. The inhibition constant (Ki) in data set [1] was 46 nM.
For `CN1CCc2oc3ccc(S(=O)(=O)c4ccccc4)cc3c2C1.Cl` [Example 27, 2-Methyl-8-(phenylsulfonyl)-1,2,3,4-tetrahydrobenzofuro[3,2c]pyridine hydrochloride] the same measures were 272 °C and 6.5 nM.
For `Cl.O=S(=O)(c1ccccc1)c1ccc2oc3c(c2c1)CNCC3` [Example 28, 8-(Phenylsulfonyl)-1,2,3,4-tetrahydrobenzofuro[3,2-c]pyridine hydrochloride] the same measures were 243 °C and 19 nM.
On to `Cc1cc(S(=O)(=O)c2cc(Cl)cc(Cl)c2)cc2c3c(oc12)CCNC3` [Example 198], for which the inhibition constant Ki in data set [1] came to 1.2 nM.
Same read-out and setting: then `Cc1cc(S(=O)(=O)c2ccc(F)c(F)c2)cc2c3c(oc12)CCNC3` [Example 199], with 2 nM; and `Cc1cc(S(=O)(=O)c2cccc(F)c2)cc2c3c(oc12)CCNC3` [Example 200], with 0.5 nM.
The same measure, in the same setting: then `Cc1cc(S(=O)(=O)c2cccc(C(F)(F)F)c2)cc2c3c(oc12)CCNC3` [Example 201], with 0.22 nM.
Still for that read-out and setting: with `Cc1cc(S(=O)(=O)c2cccc(OC(F)F)c2)cc2c3c(oc12)CCNC3` [Example 202] the figure was 0.3 nM; with `Cc1cc(S(=O)(=O)c2ccc(F)cc2)cc2c3c(oc12)CCNC3` [Example 203], 1.5 nM; with `Cc1cc(S(=O)(=O)c2ccc3sccc3c2)cc2c3c(oc12)CCNC3` [Example 204], 0.23 nM.
`O=S(=O)(c1ccccc1)c1cc(C(F)(F)F)c2oc3c(c2c1)CNCC3` [Example 205]: in data set [1], the Ki was found to be 2.1 nM.
The same measure, in the same setting: then `O=S(=O)(c1cccc(C(F)(F)F)c1)c1cc(F)c2oc3c(c2c1)CNCC3` [Example 206], with 5.9 nM; and `O=S(=O)(c1ccc(F)cc1)c1cc(F)c2oc3c(c2c1)CNCC3` [Example 207], with 44 nM; and `N#Cc1cc(S(=O)(=O)c2cc(F)cc(F)c2)cc2c3c(oc12)CCNC3` [Example 208], with 50 nM.
The same measure, in the same setting: with `N#Cc1cc(S(=O)(=O)c2ccc(F)cc2)cc2c3c(oc12)CCNC3` [Example 209] the figure was 18 nM.
Turning to `N#Cc1cc(S(=O)(=O)c2ccccc2)cc2c3c(oc12)CCNC3` [Example 210], in data set [1], the Ki was found to be 4.2 nM.
On the same count and under the same terms, then `Cn1cc(S(=O)(=O)c2cc(C#N)c3oc4c(c3c2)CNCC4)c2ccccc21` [Example 211], with 0.4 nM; and `N#Cc1cc(S(=O)(=O)c2ccc(Cl)cc2)cc2c3c(oc12)CCNC3` [Example 212], with 8.8 nM.
Turning to `N#Cc1cc(S(=O)(=O)c2cccc(Cl)c2)cc2c3c(oc12)CCNC3` [Example 213], in data set [1], the inhibitory constant (Ki) was 1.9 nM.
Still for that read-out and setting: with `O=S(=O)(c1ccccc1)c1cc(OC(F)(F)F)c2oc3c(c2c1)CNCC3` [Example 214] the figure was 0.88 nM; with `CCOc1cc(S(=O)(=O)c2ccccc2)cc2c3c(oc12)CCNC3` [Example 215], 0.11 nM; with `O=S(=O)(c1ccccc1)c1cc(OC(F)F)c2oc3c(c2c1)CNCC3` [Example 216], 0.33 nM.
On the same count and under the same terms, then `O=S(=O)(c1ccccc1)c1cc(OCCO)c2oc3c(c2c1)CNCC3` [Example 217], with 1.6 nM; and `CC(C)(O)COc1cc(S(=O)(=O)c2ccccc2)cc2c3c(oc12)CCNC3` [Example 218], with 507 nM.
On the same count and under the same terms, then `CC(C)(O)c1cc(S(=O)(=O)c2ccccc2)cc2c3c(oc12)CCNC3` [Example 220], with 55 nM; and `CC(O)c1cc(S(=O)(=O)c2ccccc2)cc2c3c(oc12)CCNC3` (centres unmarked) [Example 221], with 5.7 nM; and `NC(=O)c1cc(S(=O)(=O)c2ccccc2)cc2c3c(oc12)CCNC3` [Example 222], with 307 nM.
With `CN(C)C(=O)c1cc(S(=O)(=O)c2ccccc2)cc2c3c(oc12)CCNC3` [Example 223], the Ki in data set [1] turned out to be 1110 nM.
Same read-out and setting: then `O=S(=O)(c1ccccc1)c1cc(-c2cc[nH]n2)c2oc3c(c2c1)CNCC3` [Example 224], with 4.5 nM; and `Cn1cc(-c2cc(S(=O)(=O)c3ccccc3)cc3c4c(oc23)CCNC4)cn1` [Example 225], with 11 nM; and `O=S(=O)(c1ccccc1)c1cc(-n2cncn2)c2oc3c(c2c1)CNCC3` [Example 226], with 106 nM.
Still for that read-out and setting: then `Cn1ccc(-c2cc(S(=O)(=O)c3ccccc3)cc3c4c(oc23)CCNC4)n1` [Example 227], with 60 nM.
As for `O=S(=O)(c1ccccc1)c1cc(N2CCOCC2)c2oc3c(c2c1)CNCC3` [Example 228], the Ki in data set [1] was found to be 47 nM.
Still for that read-out and setting: then `O=S(=O)(c1ccccc1)c1cc(Cn2ccnc2)c2oc3c(c2c1)CNCC3` [Example 229], with 64 nM; and `COc1cc(Sc2ccccc2)cc2c3c(oc12)CCNC3` [Example 230], with 1.9 nM; and `[O-][S+](c1ccccc1)c1cc(Cl)c2oc3c(c2c1)CNCC3` (centres unmarked) [Example 231], with 3.1 nM.
Same read-out and setting: then `[O-][S+](c1ccccc1)c1cc(Cl)c2oc3c(c2c1)CNCC3` (centres unmarked) [Example 232], with 29 nM.
Same read-out and setting: then `COc1cc([S+]([O-])c2ccccc2)cc2c3c(oc12)CCNC3` (centres unmarked) [Example 233], with 2.4 nM; and `COc1cc([S+]([O-])c2ccccc2)cc2c3c(oc12)CCNC3` (centres unmarked) [Example 234], with 7.4 nM; and `COc1cc([S+]([O-])c2ccccc2)cc2c3c(oc12)CCNC3` (centres unmarked) [Example 235], with 1.1 nM.
Regarding `Clc1cc(Cc2ccccc2)cc2c3c(oc12)CCNC3` [Example 236], the Ki in data set [1] was 24 nM.
On the same count and under the same terms, then `COc1cc(Oc2ccccc2)cc2c3c(oc12)CCNC3` [Example 237], with 645 nM.
Turning to `COc1cc(S(=O)(=O)c2ccccc2)cc2c3c(oc12)CCC(O)C3` (centres unmarked) [Example 238], the Ki in data set [1] was 0.59 nM.
Same read-out and setting: with `CC(=O)N1CCc2oc3c(Cl)cc(S(=O)(=O)c4ccccc4)cc3c2C1` [Example 239] the figure was 9.5 nM.
